Measurements taken from BindingDB's records for doi:10.1016/j.bmcl.2017.09.048 (St. John'S University, 2017).

What was measured:
[1] = Inhibition of ABL in mouse BAF3 cells assessed as reduction in cell viability after 72 hrs by MTT assay
[2] = Inhibition of ABL T315I mutant in mouse BAF3 cells assessed as reduction in cell viability after 72 hrs by MTT assay

SMILES: COc1cc(N2CCN(C)CC2)ccc1Nc1ncc(Cl)c(Oc2ccccc2N=C=S)n1
- IC50 [1]: 5.56 µM
- IC50 [2]: 8.99 µM

SMILES: COc1cc(N2CCN(C)CC2)ccc1Nc1ncc(Cl)c(Oc2ccccc2NC(=O)COCc2ccccc2)n1
- IC50 [1]: 1.37 µM
- IC50 [2]: 3.5 µM

SMILES: COc1cc(N2CCN(C)CC2)ccc1Nc1ncc(Cl)c(Oc2ccc(N=C=S)cc2)n1
- IC50 [1]: 7.5 µM
- IC50 [2]: 9.53 µM

SMILES: COc1cc(N2CCN(C)CC2)ccc1Nc1ncc(Cl)c(Oc2ccccc2NC(=O)CCOCc2ccccc2)n1
- IC50 [1]: 3.12 µM
- IC50 [2]: 3.06 µM

SMILES: COc1cc(N2CCN(C)CC2)ccc1Nc1ncc(Cl)c(Oc2cccc(N)c2)n1
- IC50 [1]: 1.9 µM
- IC50 [2]: 1.96 µM

SMILES: COc1cc(N2CCN(C)CC2)ccc1Nc1ncc(Cl)c(Oc2ccccc2[N+](=O)[O-])n1
- IC50 [1]: 6.81 µM
- IC50 [2]: 11.6 µM

SMILES: COc1cc(N2CCN(C)CC2)ccc1Nc1ncc(Cl)c(Oc2cccc(N=C=S)c2)n1
- IC50 [1]: 8.41 µM
- IC50 [2]: 4.99 µM

SMILES: COc1cc(N2CCN(C)CC2)ccc1Nc1ncc(Cl)c(Oc2ccccc2NC(=O)CCO)n1
- IC50 [1]: 2.12 µM
- IC50 [2]: 3.86 µM

SMILES: COc1cc(N2CCN(C)CC2)ccc1Nc1ncc(Cl)c(Oc2ccc([N+](=O)[O-])cc2)n1
- IC50 [1]: 3.48 µM
- IC50 [2]: 6.89 µM

SMILES: COc1cc(N2CCN(C)CC2)ccc1Nc1ncc(Cl)c(Oc2cccc([N+](=O)[O-])c2)n1
- IC50 [1]: 6.8 µM
- IC50 [2]: 9.15 µM

SMILES: COc1cc(N2CCN(C)CC2)ccc1Nc1ncc(Cl)c(Oc2cccc(NC(=O)COCc3ccccc3)c2)n1
- IC50 [1]: 2.44 µM
- IC50 [2]: 2.87 µM

SMILES: COc1cc(N2CCN(C)CC2)ccc1Nc1ncc(Cl)c(Oc2ccc(NC(=O)COCc3ccccc3)cc2)n1
- IC50 [1]: 2.11 µM
- IC50 [2]: 3.62 µM

SMILES: COc1cc(N2CCN(C)CC2)ccc1Nc1ncc(Cl)c(Oc2cccc(NC(=O)/C=C/CN(C)C)c2)n1
- IC50 [1]: 7.02 µM
- IC50 [2]: 6.02 µM

SMILES: C=CC(=O)Nc1cccc(Oc2nc(Nc3ccc(N4CCN(C)CC4)cc3OC)ncc2Cl)c1
- IC50 [1]: 9.69 µM
- IC50 [2]: 16.3 µM

SMILES: COc1cc(N2CCN(C)CC2)ccc1Nc1ncc(Cl)c(Oc2ccc(N)cc2)n1
- IC50 [1]: 2.81 µM
- IC50 [2]: 5.47 µM

SMILES: COc1cc(N2CCN(C)CC2)ccc1Nc1ncc(Cl)c(Oc2cccc(N=[N+]=[N-])c2)n1
- IC50 [1]: 3.87 µM
- IC50 [2]: 4.67 µM

SMILES: COc1cc(N2CCN(C)CC2)ccc1Nc1ncc(Cl)c(Oc2ccc(NC(=O)CO)cc2)n1
- IC50 [1]: 6.68 µM
- IC50 [2]: 2.74 µM

SMILES: COc1cc(N2CCN(C)CC2)ccc1Nc1ncc(Cl)c(Oc2ccccc2N=[N+]=[N-])n1
- IC50 [1]: 1.45 µM
- IC50 [2]: 1.33 µM

SMILES: COc1cc(N2CCN(C)CC2)ccc1Nc1ncc(Cl)c(Oc2ccc(NC(=O)CCOCc3ccccc3)cc2)n1
- IC50 [1]: 1.43 µM
- IC50 [2]: 1.5 µM

SMILES: C=CC(=O)Nc1ccc(Oc2nc(Nc3ccc(N4CCN(C)CC4)cc3OC)ncc2Cl)cc1
- IC50 [1]: 6.39 µM
- IC50 [2]: 7.7 µM

SMILES: COc1cc(N2CCN(C)CC2)ccc1Nc1ncc(Cl)c(Oc2cccc(NC(C)=O)c2)n1
- IC50 [1]: 2.91 µM
- IC50 [2]: 5.56 µM

SMILES: COc1cc(N2CCN(C)CC2)ccc1Nc1ncc(Cl)c(Oc2ccc(NC(=O)CCO)cc2)n1
- IC50 [1]: 3.25 µM
- IC50 [2]: 3.35 µM

SMILES: COc1cc(N2CCN(C)CC2)ccc1Nc1ncc(Cl)c(Oc2ccc(NC(=O)/C=C/CN(C)C)cc2)n1
- IC50 [1]: 4.72 µM
- IC50 [2]: 3.41 µM

SMILES: COc1cc(N2CCN(C)CC2)ccc1Nc1ncc(Cl)c(Oc2ccccc2NC(=O)/C=C/CN(C)C)n1
- IC50 [1]: 9.1 µM
- IC50 [2]: 8.12 µM

SMILES: C=CC(=O)Nc1ccccc1Oc1nc(Nc2ccc(N3CCN(C)CC3)cc2OC)ncc1Cl
- IC50 [1]: 2.92 µM
- IC50 [2]: 2.37 µM

SMILES: COc1cc(N2CCN(C)CC2)ccc1Nc1ncc(Cl)c(Oc2cccc(NC(=O)CCO)c2)n1
- IC50 [1]: 2.07 µM
- IC50 [2]: 1.39 µM

SMILES: COc1cc(N2CCN(C)CC2)ccc1Nc1ncc(Cl)c(Oc2ccccc2NC(C)=O)n1
- IC50 [1]: 8.49 µM
- IC50 [2]: 4.73 µM

SMILES: COc1cc(N2CCN(C)CC2)ccc1Nc1ncc(Cl)c(Oc2cccc(NC(=O)CCOCc3ccccc3)c2)n1
- IC50 [1]: 2.47 µM
- IC50 [2]: 2.49 µM

SMILES: COc1cc(N2CCN(C)CC2)ccc1Nc1ncc(Cl)c(Oc2cccc(NC(=O)CO)c2)n1
- IC50 [1]: 1.48 µM
- IC50 [2]: 1.12 µM

SMILES: COc1cc(N2CCN(C)CC2)ccc1Nc1ncc(Cl)c(Oc2ccccc2N)n1
- IC50 [1]: 6.73 µM
- IC50 [2]: 5.74 µM

SMILES: COc1cc(N2CCN(C)CC2)ccc1Nc1ncc(Cl)c(Oc2ccc(NC(C)=O)cc2)n1
- IC50 [1]: 2.08 µM
- IC50 [2]: 2.89 µM

SMILES: COc1cc(N2CCN(C)CC2)ccc1Nc1ncc(Cl)c(Oc2ccccc2NC(=O)CO)n1
- IC50 [1]: 2.07 µM
- IC50 [2]: 4.18 µM

SMILES: COc1cc(N2CCN(C)CC2)ccc1Nc1ncc(Cl)c(Oc2ccc(N=[N+]=[N-])cc2)n1
- IC50 [1]: 13.1 µM
- IC50 [2]: 15.1 µM
